Results reported in ChEMBL document CHEMBL2203037, “Synthesis and Anti-influenza A Virus Activity of 2,2-Dialkylamantadines and Related Compounds” (ACS Med Chem Lett, 2012).
pEC50: −log10 of the molar value. Active and inactive are the calls of the source. No cut-off for these calls is given here.

Columns and labels:
[1] = Cytotoxicity against dog MDCK cells assessed as cell viability after 72 hrs by MTS assay; type: cell-based, Canis lupus familiaris
[2] = Cytotoxicity against dog MDCK cells assessed as cell morphology alterations; type: cell-based, Canis lupus familiaris
[3] = tested on: Mammalian orthoreovirus 1; assay: Antiviral activity against Reovirus-1 by cell based assay; type: functional, organism-based
Coxsackievirus B4 = assay: Antiviral activity against Coxsackievirus B4 by cell based assay; type: functional, organism-based
Punta Toro virus = assay: Antiviral activity against Punta Toro virus by cell based assay; type: functional, organism-based
Sindbis virus = assay: Antiviral activity against Sindbis virus by cell based assay; type: functional, organism-based
[4] = tested on: Vesicular stomatitis virus; assay: Antiviral activity against Vesicular stomatitis virus by cell based assay; type: functional, organism-based
Human respirovirus 3 = assay: Antiviral activity against Parainfluenza-3 virus by cell based assay; type: functional, organism-based
[5] = tested on: Respiratory syncytial virus; assay: Antiviral activity against Respiratory syncytial virus by cell based assay; type: functional, organism-based
Feline coronavirus = assay: Antiviral activity against Feline coronavirus by cell based assay; type: functional, organism-based
Vaccinia virus = assay: Antiviral activity against Vaccinia virus by cell based assay; type: functional, organism-based; conditions: Orthopoxvirus vaccinia
Simplexvirus = assay: Antiviral activity against Herpes simplex virus by cell based assay; type: functional, organism-based
Influenza A virus [6] = assay: Antiviral activity against Influenza A virus (A/X-31(H3N2)) infected in MDCK cells assessed as virus-induced cytopathic effect measured 3 days post infection by microscopic analysis; type: functional, organism-based; conditions: Influenza A virus, MDCK, 72 h
Influenza A virus [7] = assay: Antiviral activity against Influenza A virus (A/Ishikawa/7/82 (H3N2)) infected in MDCK cells assessed as virus-induced cytopathic effect measured 3 days post infection by microscopic analysis; type: functional, organism-based; conditions: Influenza A virus, A/Ishikawa/7/82 (H3N2), MDCK, 72 h
Influenza A virus [8] = assay: Antiviral activity against amantadine-sensitive Influenza A virus (A/FM/1/47 (H1N1)) infected in MDCK cells assessed as virus-induced cytopathic effect measured 3 days post infection by microscopic analysis; type: functional, organism-based; conditions: A/Fort Monmouth/1/1947(H1N1), 72 h
Influenza A virus [9] = assay: Antiviral activity against amantadine-sensitive Influenza A virus (A/Ned/378/05 (H1N1)) infected in MDCK cells assessed as virus-induced cytopathic effect measured 3 days post infection by microscopic analysis; type: functional, organism-based; conditions: 72 h
H3N2 subtype [10] = assay: Antiviral activity against Influenza A virus (A/HK/7/87 (H3N2)) infected in MDCK cells assessed as virus-induced cytopathic effect by MTS assay; type: functional, organism-based, A/Hong Kong/7/1987(H3N2); conditions: mdck
H3N2 subtype [11] = assay: Antiviral activity against Influenza A virus (A/HK/7/87 (H3N2)) infected in MDCK cells assessed as virus-induced cytopathic effect measured 3 days post infection by microscopic analysis; type: functional, organism-based; conditions: A/Hong Kong/7/1987(H3N2), 72 h

SMILES | CC50 at 72 h [1] | MCC [2] | Activity [3] | Activity (Coxsackievirus B4) | Activity (Punta Toro virus) | Activity (Sindbis virus) | Activity [4] | Activity (Human respirovirus 3) | Activity [5] | Activity (Feline coronavirus) | Activity (Vaccinia virus) | Activity (Simplexvirus) | pEC50 (Influenza A virus [6]) | pEC50 (Influenza A virus [7]) | pEC50 (Influenza A virus [8]) | pEC50 (Influenza A virus [9]) | pEC50 (H3N2 subtype [10]) | pEC50 (H3N2 subtype [11])
CCC1(CC)C2CC3CC(C2)CC1(N(C)C)C3 | > 100 µM | ≥ 100 µM | inactive | inactive | inactive | inactive | inactive | inactive | inactive | inactive | inactive | inactive | < 4.00 | < 4.00 | 4.37 | 4.64 | < 4.00 | < 4.00
CCC1(CC)C2CC3CC(C2)CC1(NC)C3 | > 100 µM | ≥ 100 µM | inactive | inactive | inactive | inactive | inactive | inactive | inactive | inactive | inactive | inactive | < 4.00 | < 4.00 | 5.03 | 5.06 | < 4.00 | < 4.00
